Data reported in article PMC3599540, “4-Aryl-4H-naphthopyrans derivatives: one-pot synthesis, evaluation of Src kinase inhibitory and anti-proliferative activities” (DARU Journal of Pharmaceutical Sciences, 2012).
pIC50: −log10 of the molar value.

What was measured:
c-Src kinase = target: T1, c-Src kinase (Homo sapiens, UniProt P12931); assay: c-Src kinase activity assay (HTScan Src Kinase Assay Kit); assay type: biochemical; conditions: concentration that inhibited enzyme activity by 50%; triplicate; read-out: IC50 (inhibition of Src kinase activity)
T1 construct: purchased Cell Signaling Technology (Danvers, MA, USA) 7776
T1 sequence (P12931 whole entry): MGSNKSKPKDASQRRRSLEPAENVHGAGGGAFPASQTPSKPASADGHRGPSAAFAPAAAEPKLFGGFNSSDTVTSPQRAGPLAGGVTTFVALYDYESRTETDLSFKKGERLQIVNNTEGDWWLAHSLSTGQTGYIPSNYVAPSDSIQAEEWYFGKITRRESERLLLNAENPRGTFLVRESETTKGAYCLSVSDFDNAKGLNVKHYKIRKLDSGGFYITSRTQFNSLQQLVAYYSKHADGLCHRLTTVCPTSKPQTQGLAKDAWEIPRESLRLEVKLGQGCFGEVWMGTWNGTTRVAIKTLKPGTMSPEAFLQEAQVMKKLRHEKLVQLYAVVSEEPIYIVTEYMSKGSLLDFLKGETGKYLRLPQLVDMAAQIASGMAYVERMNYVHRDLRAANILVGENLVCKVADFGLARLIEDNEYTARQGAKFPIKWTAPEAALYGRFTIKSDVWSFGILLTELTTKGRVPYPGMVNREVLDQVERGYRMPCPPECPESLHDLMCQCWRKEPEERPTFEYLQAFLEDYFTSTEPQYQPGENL
Experimental: Streptavidin-coated plates were purchased from Pierce (Rockford, IL, USA). […] The reaction mixture was incubated for 30 min at room temperature. The kinase reaction was stopped with the addition of 50 μL of 50 mM EDTA (pH 8.0). […] At the end of the incubation, the wells were washed three times with 200 μL of 0.05% Tween-20 in PBS buffer (PBS/T). After that to each well was added 100 μL of phosphotyrosine antibody (P-Tyr-100) (1:1000 dilution in PBS/T with 1% BSA) and the wells were incubated for another 60 min. After washing three times with 0.05% Tween-20 in PBS/T, the wells were incubated with 100 μL secondary anti-mouse IgG antibody, which was HRP-conjugated (1:500 dilution in PBS/T with 1% BSA) for next 30 min at room temperature. The wells were washed five times with 0.05% Tween-20 in PBS and then were incubated with 100 μL of 3,3',5,5'-tetramethylbenzidine dihydrochloride (TMB) substrate for 5 min. The reaction was stopped by adding 100 μL/well of stop solution to each well and mixed well and read the absorbance at 450 nm using a microplate reader (Molecular devices, spectra Max M2). IC50 values of the compounds were calculated using ORIGIN 6.0 (origin lab) software. […] All the experiments were carried out in triplicate.

[1] = system: mesenchymal stem cell proliferation; parameters: method as in PMID 9562601; conditions: cited from earlier work
[2] = system: breast carcinoma (BT-20) cell line; assay: Cell proliferation assay (CellTiter 96) in BT-20 cells; assay type: cell-based; conditions: DOX 10 μM, 72 h incubation, relative to DMSO control
Experimental: Breast carcinoma BT-20 (ATCC no. HTB-19) cell lines were obtained from American Type Culture Collection. Cells were grown on 75 cm^2 cell culture with EMEM medium for breast carcinoma and supplemented with 10% fetal bovine serum (FBS), and 1% penicillin-streptomycin solution (10,000 units of penicillin and 10 mg of streptomycin in 0.9% NaCl) in a humidified atmosphere of 5% CO2, 95% air at 37°C.
Cell proliferation assay of compounds was evaluated in BT-20 cells, and was compared with that of doxorubicin (DOX)[38]. Cell proliferation assay was carried out using CellTiter 96 aqueous one solution cell proliferation assay kit (Promega, USA). Briefly, upon reaching about 75-80% confluence, 5000 cells/well were plated in 96-well microplate in 100 μL media. After seeding for 72 h, the cells were treated with 50 μM compound in triplicate. […] The absorbance of the formazan product was measured at 490 nm using microplate reader. The blank control was recorded by measuring the absorbance at 490 nm with wells containing medium mixed with CellTiter 96 aqueous solution but no cells. Results were expressed as the percentage of the control (DMSO without compound set at 100%). The percentage of cell survival was calculated as (OD value of cells treated with test compound - OD value of culture medium) / (OD value of control cells – OD value of culture medium) × 100%. […]

| pIC50 (c-Src kinase) | Compound | other results |
| --- | --- | --- |
| 4.38 | N#CC1=C(N)Oc2ccc3ccccc3c2C1c1cccc(Cl)c1 (stereo not drawn) [Compound 4j] |  |
| 4.47 | N#CC1=C(N)Oc2ccc3ccccc3c2C1c1cccc(O)c1 (stereo not drawn) [Compound 4m] |  |

The remaining lines, values behind:

| Compound | pIC50 (c-Src kinase) | other results |
| --- | --- | --- |
| N#CC1=C(N)Oc2c(ccc3ccccc23)C1c1ccccc1Cl (stereo not drawn) [Compound 4d] | 4.46 |  |
| COc1ccc(C2C(C#N)=C(N)Oc3ccc4ccccc4c32)cc1 (stereo not drawn) [Compound 4n] | 4.46 |  |
| CSc1ccc(C2C(C#N)=C(N)OC3=C2CCc2ccccc23)cc1 (stereo not drawn) [compound B, 4-aryl-4H-5,6-dihydronaphtho[1,2-b]pyran] |  | pIC50 [1]: 4.89 |
| COc1cccc2c1C(=O)c1c(O)c3c(c(O)c1C2=O)C[C@@](O)(C(=O)CO)C[C@@H]3O[C@H]1C[C@H](N)[C@H](O)[C@H](C)O1 [doxorubicin] |  | Inhibition of BT-20 cell growth (positive control) [2]: 25% |
